Assay results as given in US9587220B2, “Method for inducing cardiac differentiation of pluripotent stem cell” (Kyoto University, priority 2012, dated 2017).
Several values for one entry are separate records, joined by “and”; a condition that tells them apart may be missing. Equal entries are not always repeated.

How the values were obtained:
[1] = test system: hESC lines (KhES-1, KhES-3), monkey ESC line (CMK6.4), mouse ESC line (R1), hiPSC lines (IMR90-1, IMR90-4, 253G1, RCHIPC0003); test: Beating cardiac colony ratio in a variety of PSC lines treated with KY02111 (serum-containing medium); format: cell-based, human; conditions: KY02111 treatment, FIG. 1e
Procedure: All PSC lines were maintained on mitomycin C-treated mouse embryonic fibroblasts (MEF), in Primate ES Cell Culture Medium (ReproCELL Inc., Japan), with 5 ng ml^−1 bFGF for hPSCs, and without bFGF for monkey ESCs. Human ESC lines were KhES-1, KhES-3, H1, and H9 (Non-patent literatures 1, 41). Human iPSC lines were 253G1, IMR90-1, IMR90-4 (Non-patent literatures 42, 43), and RCHIPC0003. RCHIPC0003 was established from human fibroblasts by ReproCELL. The monkey ESC line was CMK6.4 (Non-patent literatures 1, 44, 45). The hESC line was used in conformity with the Guidelines for Derivation and Utilization of Human Embryonic Stem Cells of the Ministry of Education, Culture, Sports, Science, and Technology of Japan.
Confluent hESCs and hiPSCs were gently detached with CTK solution and transferred into Petri dishes (BD Biosciences) with Primate ES Cell Culture Medium (ReproCELL, Japan). Cells were held in suspension culture for 8-24 h to form aggregates. The sizes of hPSC aggregates (0.3-1 mm in diameter) are important for efficient differentiation. […] Beating colonies were counted on Day 9.

IMR90-1 hiPSCs = test: Immunostaining of cardiac, pacemaker and fibroblast markers in differentiated hiPSCs; format: cell-based, human
Procedure: Confluent hESCs and hiPSCs were gently detached with CTK solution and transferred into Petri dishes (BD Biosciences) with Primate ES Cell Culture Medium (ReproCELL, Japan). Cells were held in suspension culture for 8-24 h to form aggregates. The sizes of hPSC aggregates (0.3-1 mm in diameter) are important for efficient differentiation. Following suspension culture, cell aggregates were attached to culture dishes (3-10×10^5 cells cm^−2) in cardiac differentiation medium: IMDM (Sigma), containing 20% FBS (Gibco), 1% MEM non-essential amino acid solution (Sigma), 1% Penicillin-Streptomycin (Gibco), 2 mM L-glutamine (Sigma), 0.001% 2-Mercaptoethanol (Gibco), and 0.005N NaOH, with 10 ng ml^−1 BMP4 (R&D Systems). The medium was changed to cardiac differentiation medium with 10 μM KY02111 and/or other WNT inhibitors added on Day 3 (hiPSC lines) or Day 4 (human or monkey ESC lines); XAV939 (Wako, Japan), IWP-2 (Santa Cruz Biotechnology), IWR-1 (Merck4Bioscience), IGFBP4 (R&D Systems), Dkk1 (R&D Systems) and the mixture of bFGF (R&D Systems), BMP4 (R&D Systems), VEGF (R&D Systems), DKK1 (R&D Systems), and Activin A (R&D Systems) (Non-patent literature 16). Medium was changed every 2-3 d. KY02111 and other WNT inhibitors were added until Day 9 for hiPSC lines and the monkey ESC line, or Day 14 for hESC lines. On Day 15, cardiac cell colonies on dishes were incubated with protease solution (0.1% collagenase type I, 0.25% trypsin, 1 U ml^−1 DNase I, 116 mM NaCl, 20 mM HEPES, 12.5 mM NaH2PO4, 5.6 mM glucose, 5.4 mM KCl, and 0.8 mM MgSO4, pH 7.35) for 0.5-2 h, until all cardiac colonies were detached from the bottom of the wells. The detached cardiac colonies were transferred into 15 ml tubes with fresh cardiac differentiation medium and precipitated by gravity, and the supernatant was removed by aspiration. The cardiac colonies were then transferred into Ultra-low culture dishes (Corning, 3261) or 6-well plates (Corning, YO-01835-24) in cardiac differentiation medium without both serum and NaOH. The floating cardiac colonies were maintained for more than 1 month, and the media were changed every 5 d. A differentiation method of mouse ESC (R1 line) was carried out as previously described^46, and KY02111 was added during Days 3-6. Beating colonies were counted on Day 9.
Cardiac colonies were dissociated by stirring for 1-2 h at 37° C. with the protease solution described above, cultured for 1 d on cover glasses coated with gelatin (Sigma), and fixed with 4% paraformaldehyde. After permeabilizing with Triton X, the cells were treated with 2% skim milk for 1-2 h, then incubated with primary antibodies for 2 h: NKX2.5 (rabbit polyclonal, 1:250; Abcam), αActinin (mouse monoclonal, 1:800; Sigma), cardiac TnT (mouse monoclonal, 1:100; Santa Cruz Biotechnology), Vimentin (mouse monoclonal, 1:800; Sigma V6630), and HCN4 (mouse monoclonal, 1:400; Abcam). The secondary antibodies used were Alexa546-conjugated anti-mouse IgG, Alexa488-conjugated anti-mouse IgG, and Alexa488-conjugated anti-rabbit IgG (1:1000; all from Molecular Probes, Invitrogen). Nuclei were visualized by DAPI. Images were captured under fluorescent microscopy (Olympus). The number of cTnT, αActinin, NKX2.5, HCN4, and Vimentin-positive cells were counted from three random areas, using the Metamorph imaging system (Molecular Devices). […] Cells were analyzed using a FACS CantoII flow cytometer (BD Biosciences). Data was analyzed using FACADiva software (BD Biosciences).

Structure (SMILES): COc1ccc(CCC(=O)Nc2nc3ccc(Cl)cc3s2)cc1OC [KY02111, 2-(3-(3,4-dimethoxyphenyl)propanamide)-6-chlorobenzothiazole]
- ratio of beating colonies per all of colonies on culture dish [1]: 60-94% and 70-90%
- SMA (smooth muscle marker) expression (IMR90-1 hiPSCs; data not shown): almost undetectable
- Vimentin-positive ratio (IMR90-1 hiPSCs; serum-containing medium): 20%
- cells positive for pacemaker marker HCN4 (IMR90-1 hiPSCs; serum-containing medium): 16%
- cTnT-positive cells (IMR90-1 hiPSCs; serum-containing medium, FIG. 10b): approximately 80%
- decrease of ratio of Vimentin-positive cells (fibroblasts) (IMR90-1 hiPSCs; versus DMSO): 3.3 fold
